Results taken from US6774143B1, “Method for treating cells resistant to antineoplastic agents” (Novartis AG, priority 2003, dated 2004).
Where two headings read alike, the source gives them in different places.

Columns and labels:
PTX-22 cells = assay: Antiproliferative assay (MTS); format: cell-based, human
Protocol: (§1) A549, a human non-small cell lung carcinoma and MDA-MB-435, a human breast carcinoma, used in this study are obtained from the American Type Culture Collection (ATCC, Rockville, Md., USA). MDA-MB-435 cells are maintained in MEM containing 10% FBS, 1% sodium pyruvate, 1% MEM non-essential amino acids, and 15 mM HEPES (pH=7.4). A549 cells are maintained in RPMI 1640 containing 10% FBS. 1A9, a single-cell clone of the human ovarian carcinoma cell line A2780 and PTX22, the paclitaxel-resistant subline, used in this stdy are obtained from M. Wartman (Novartis Pharmauticals). 1A9 cells and PTX22 cells are maintained in RPMI 1640 supplemented with 10% FBS. PTX22 maintenance media also contained 15 ng/mL paclitaxel and 5 μg/mL verapamil. Drug is removed from the media for 5-7 days before use in an experiment. All maintenance media contained 100 units/mL penicillin and 100 μg/mL streptomycin.
Cell lines are trypsinized and counted using a Coulter counter. Cells were plated in 96 well plates (190 μL/well) at the following densities: 1,000 cells/well for A549 and 3,000 cells/well for MDA-MB-435. The number of cells plated results in cell densities of 75-90% confluence by the time of harvest. Plates are seeded on day 0. On day 1 test compounds are added to triplicate wells in a final volume of 10 μL media. Initial cell density for each cell line is measured on day 1 by adding 10 μL MTS mixture (see below), incubating for 4 h and recording absorbance at 490 nm (A490). Two or three days after test compound addition, 10 μL/well of MTS mixture is added to the test plates and A490 was read 4 h later. A490 values for wells containing cells are corrected for media absorbance, then normalized to initial density readings to determine percent net growth. Percent net growth is calculated as (A490+drug−A490 initial)/(A490—drug—A490 initial). Graphs of percent net growth as a function of compound concentration are used to calculate concentrations resulting in 50% growth inhibition (IC50). MTS mixture is prepared fresh on day of addition to cell plates at a ratio of 10 μL of a 0.92 mg/mL solution of phenazine methosulfate (PMS) to 190 μL of a 2 mg/mL solution of MTS (3-(4,5-dimethylthiazol-2-yl)-5-(3-carboxymethoxyphenyl)-2-(4-sulfophenyl)-2H-tetrazolium, inner salt). PMS and MTS solutions are prepared in buffered saline containing 0.2 g/L KCl, 8.0 g/L NaCl, 0.2 g/L KH2PO4, 1.15 g/L Na2HPO4, 133 mg/L CaCl2.2H2O, 100 mg/L MgCl2.6H2O, (pH=7.35) and stored as foil-wrapped aliquots at −20° C. Test compounds are prepared as stock solutions in DMSO. Test compound dilutions are made in 2% DMSO/cell maintenance media and diluted into assay plates to give 0.1% DMSO final in all wells.

1A9 cells = assay: Antiproliferative assay (MTS); format: cell-based; conditions: Homo sapiens, 1A9, 72 h, single value given
Protocol: as §1, with “All maintenance media contained 100 units/mL penicillin and 100 μg/mL streptomycin.” left out
Cell lines are trypsinized and counted using a Coulter counter. […] Initial cell density for each cell line is measured on day 1 by adding 10 μL MTS mixture (see below), incubating for 4 h and recording absorbance at 490 nm (A490). Two or three days after test compound addition, 10 μL/well of MTS mixture is added to the test plates and A490 was read 4 h later. A490 values for wells containing cells are corrected for media absorbance, then normalized to initial density readings to determine percent net growth. Percent net growth is calculated as (A490+drug−A490 initial)/(A490—drug—A490 initial). […]

Raf-1 = assay: Western blot, Raf-1 phosphorylation; format: cell-based, human
Protocol: (§2) Cells are plated at a density of 1.5×10^6 cells per 100 mm plate. The next day cells are treated with vehicle control (0.1% DMSO) or test compound for 24 h. Cells are harvested by washing monolayers twice with PBS, then lysing with 300 ul of lysis buffer[20 mM Tris (pH 8.0), […], 100 mM NaCl, 0.5% NP40, 0.0125% DOC, 2.5% glycerol, 1 mM vanadate, 25 mM sodium fluoride and protease inhibitor cocktail (1:500 dilution, Sigma)]. Lysates were spun at 12,000× g and the supernatant transferred to a new tube. Protein concentration of the lysates is determined using BCA protein assay Reagent (Pierce). Samples (75 μg) are resolved by SDS-PAGE on a 7.5% or 14% tris-glycine gel for Raf-1 and Bcl-xL, respectively, and transferred to nitrocellulose. Immunodetection is performed as described by Amersham Vistra Fluorescence Western blotting Kit directions with the following modifications: the membrane is blocked with 5% milk (Carnation Non-Fat Dry Milk) in buffer containing 20 mM Tris-HCl (pH=7.4), 100 mM NaCl, and 0.2% Tween 20 (TBST) overnight and is subsequently incubated for 2 h with primary antibody (Santa Cruz C-12 for Raf-1 and Santa Cruz H-62 for Bcl-xL), followed by fluorescein-linked anti-rabbit Ig in 5% milk and anti-fluorescein alkaline phosphatase conjugate in TBST at 1:500 and 1:2000 dilutions, respectively. A Storm 860 (Molecular Dynamics) is used to detect fluorescent product according to the manufacturer's instructions.

Bcl-xL = assay: Western blot, Bcl-xL phosphorylation; format: cell-based, human; conditions: 24 hour treatment
Protocol: as §2

[1] = MDA-MB-435 cells, 24 hour treatment

Compound	IC50 (PTX-22 cells; Homo sapiens, 72 h, read-out: 72 hour IC50, PTX-22 cells, single value given) [nM]	IC50 (PTX-22 cells; Homo sapiens, 72 h, read-out: IC50 cell proliferation, PTX-22 cells, 72 h exposure, two independent experiments) [nM]	IC50 (PTX-22 cells; read-out: IC50 cell proliferation, PTX-22 cells, 72 h exposure, two independent experiments) [nM]	IC50 (1A9 cells; read-out: 72 hour IC50, 1A9 cells) [nM]	Raf-1 phosphorylation (Raf-1; 1A9 parental cells)	Raf-1 phosphorylation (Raf-1; A549 cells, 24 hour treatment)	Raf-1 phosphorylation (Raf-1; [1])	Raf-1 phosphorylation (Raf-1; PTX-22 cells)	Bcl-xL phosphorylation (Bcl-xL; A549 cells)	Bcl-xL phosphorylation (Bcl-xL; MDA-MB-435 cells)	IC50 (PTX-22 cells; Homo sapiens, 72 h, PTX-22 cells, single value given, read-out: 72 hour IC50) [nM]	fold less sensitive, PTX-22 versus 1A9 (PTX-22 cells; from the 72 hour IC50 values) [fold]	IC50 (1A9 cells; 1A9 cells, read-out: 72 hour IC50) [nM]
C=C/C=C\[C@H](C)[C@H](OC(N)=O)[C@@H](C)[C@H](O)[C@@H](C)C/C(C)=C\[C@H](C)[C@@H](O)[C@@H](C)/C=C\[C@@H](O)C[C@@H]1OC(=O)[C@H](C)[C@@H](O)[C@H]1C [discodermolide, (+)-Discodermolide]	30	23	37	25	phosphorylated	phosphorylated	phosphorylated	phosphorylated	phosphorylated	phosphorylated			
CC(=O)O[C@H]1C(=O)[C@@]2(C)[C@H]([C@H](OC(=O)c3ccccc3)[C@]3(O)C[C@H](OC(=O)[C@H](O)[C@@H](NC(=O)c4ccccc4)c4ccccc4)C(C)=C1C3(C)C)[C@]1(OC(C)=O)CO[C@@H]1C[C@@H]2O [paclitaxel, reference compound]					phosphorylated	phosphorylated	phosphorylated	not observed	phosphorylated	phosphorylated	80	13	6
